Assay results from ChEMBL document CHEMBL4387733, “Design, synthesis and biological evaluation of indane derived GPR40 agoPAMs” (Bioorg Med Chem Lett, 2019).
≈ marks a conversion by molar mass, not a printed value. Calls of active or inactive are those of the source. The calls are words filed in the database; no cut-off is given here.

Assays:
[1] = molecular target: B1 bradykinin receptor (Homo sapiens) (UniProt P46663); test: Displacement of [3H]Kallidin(des-Arg10,Leu9) from human recombinant bradykinin B1 receptor expressed in CHOK1 cells at 10 uM after 60 mins by scintillation counting assay relative to control; type: cell-based
Sequence of B1 bradykinin receptor (Homo sapiens) (P46663 whole entry): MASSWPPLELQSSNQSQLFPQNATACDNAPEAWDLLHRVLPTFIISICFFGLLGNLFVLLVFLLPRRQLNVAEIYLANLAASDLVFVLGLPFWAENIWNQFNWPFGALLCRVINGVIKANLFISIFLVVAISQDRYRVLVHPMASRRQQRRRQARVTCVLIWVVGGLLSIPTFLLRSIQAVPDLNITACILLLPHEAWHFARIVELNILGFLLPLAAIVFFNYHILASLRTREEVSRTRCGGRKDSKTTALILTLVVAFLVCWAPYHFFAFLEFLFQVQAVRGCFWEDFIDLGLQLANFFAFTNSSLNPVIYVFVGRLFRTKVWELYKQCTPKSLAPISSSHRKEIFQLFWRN

[2] = molecular target: GABA-A receptor; anion channel (Rattus norvegicus) (UniProt O09028+P15431+P18506+P18508+P19969+P20236+P23574+P23576+P28471+P28473+P30191+P62813+P63079+P63138+Q91ZM7+Q9ES14); test: Inhibition of rat GABAA receptor at 10 uM relative to control; type: protein-complex assay
Caspase-9 (Homo sapiens) = Caspase-9 (Homo sapiens) (UniProt P55211); test: Inhibition of human full-length recombinant caspase 9 expressed in Escherichia coli at 10 uM using Ac-LEHD-AFC as substrate preincubated for 15 mins followed by substrate addition and measured after 60 mins by spectrofluorimetric analysis relative to control
Rattus norvegicus [3] = species on record: Rattus norvegicus; test: Inhibition of rat P2Y receptor at 10 uM relative to control
[4] = molecular target: Prostaglandin G/H synthase 2 (Homo sapiens) (UniProt P35354); test: Inhibition of human recombinant cyclooxygenase COX2 expressed in baculovirus infected Sf9 cells at 10 uM using arachidonic acid as substrate preincubated for 15 mins followed by substrate addition and measured after 3 mins by ampliflu red reagent-based spectrofluorimetric method relative to control
[5] = molecular target: Histamine H1 receptor (Homo sapiens) (UniProt P35367); test: Inhibition of human histamine H1 receptor at 10 uM relative to control
[6] = molecular target: Sodium-dependent serotonin transporter (Homo sapiens) (UniProt P31645); test: Inhibition of human SERT at 10 uM relative to control
[7] = molecular target: 5-hydroxytryptamine receptor 2C (Homo sapiens) (UniProt P28335); test: Inhibition of human 5-HT2C receptor at 10 uM relative to control
Rattus norvegicus [8] = test: Hypoglycemic activity in Sprague-Dawley rat assessed as reduction in blood glucose AUC at 0.3 mg/kg, po pretreated for 1 hr followed by glucose challenge by OGTT relative to control; type: functional
[9] = molecular target: Mu-type opioid receptor (Homo sapiens) (UniProt P35372); test: Inhibition of human mu type opioid receptor at 10 uM relative to control
Sequence of Mu-type opioid receptor (Homo sapiens) (P35372 whole entry): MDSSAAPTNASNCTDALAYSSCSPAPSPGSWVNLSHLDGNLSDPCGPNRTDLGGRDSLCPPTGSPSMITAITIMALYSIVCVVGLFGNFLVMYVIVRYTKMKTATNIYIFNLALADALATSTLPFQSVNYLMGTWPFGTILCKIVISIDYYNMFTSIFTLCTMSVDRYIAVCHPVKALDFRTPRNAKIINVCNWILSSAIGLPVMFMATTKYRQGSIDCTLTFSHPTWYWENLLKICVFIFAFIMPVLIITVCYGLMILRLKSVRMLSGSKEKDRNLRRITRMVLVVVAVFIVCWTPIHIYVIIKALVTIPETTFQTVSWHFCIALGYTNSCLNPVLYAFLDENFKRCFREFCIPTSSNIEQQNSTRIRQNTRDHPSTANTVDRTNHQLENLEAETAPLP

[10] = molecular target: Acetylcholinesterase (Homo sapiens) (UniProt P22303); test: Inhibition of human recombinant full length acetylcholine esterase expressed in HEK293 cells at 10 uM using acetylcholine as substrate preincubated for 15 mins followed by substrate addition measured after 20 mins by spectrophotometric analysis
[11] = molecular target: D(2) dopamine receptor (Homo sapiens) (UniProt P14416); test: Inhibition of human dopamine D2s receptor at 10 uM relative to control
[12] = molecular target: Alpha-2A adrenergic receptor (Homo sapiens) (UniProt P08913); test: Inhibition of human adrenergic alpha2A receptor at 10 uM relative to control
[13] = molecular target: Sodium-dependent dopamine transporter (Homo sapiens) (UniProt Q01959); test: Inhibition of human sodium dependent dopamine transporter at 10 uM relative to control
Sequence of Sodium-dependent dopamine transporter (Homo sapiens) (Q01959 whole entry): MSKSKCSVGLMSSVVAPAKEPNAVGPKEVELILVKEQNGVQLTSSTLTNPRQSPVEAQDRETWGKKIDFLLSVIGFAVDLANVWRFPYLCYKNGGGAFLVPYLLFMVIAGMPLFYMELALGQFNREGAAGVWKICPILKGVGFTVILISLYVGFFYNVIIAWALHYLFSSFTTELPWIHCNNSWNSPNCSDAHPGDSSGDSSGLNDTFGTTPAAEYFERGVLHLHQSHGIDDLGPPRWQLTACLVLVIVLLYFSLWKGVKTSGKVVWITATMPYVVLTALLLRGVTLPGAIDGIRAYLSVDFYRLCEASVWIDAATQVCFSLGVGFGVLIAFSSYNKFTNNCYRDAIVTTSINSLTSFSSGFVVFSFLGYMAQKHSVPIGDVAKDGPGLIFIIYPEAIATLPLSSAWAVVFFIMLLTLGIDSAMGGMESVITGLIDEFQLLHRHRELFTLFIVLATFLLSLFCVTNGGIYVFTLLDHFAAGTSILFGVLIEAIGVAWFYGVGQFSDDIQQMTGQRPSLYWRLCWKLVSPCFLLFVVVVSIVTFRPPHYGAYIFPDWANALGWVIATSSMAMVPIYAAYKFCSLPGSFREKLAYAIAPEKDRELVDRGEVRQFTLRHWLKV

[14] = molecular target: Sodium-dependent noradrenaline transporter (Homo sapiens) (UniProt P23975); test: Inhibition of human sodium dependent noradrenaline transporter at 10 uM relative to control
[15] = molecular target: 5-hydroxytryptamine receptor 2A (Homo sapiens) (UniProt P28223); test: Inhibition of human 5-HT2A receptor at 10 uM relative to control
Sequence of 5-hydroxytryptamine receptor 2A (Homo sapiens) (P28223 whole entry): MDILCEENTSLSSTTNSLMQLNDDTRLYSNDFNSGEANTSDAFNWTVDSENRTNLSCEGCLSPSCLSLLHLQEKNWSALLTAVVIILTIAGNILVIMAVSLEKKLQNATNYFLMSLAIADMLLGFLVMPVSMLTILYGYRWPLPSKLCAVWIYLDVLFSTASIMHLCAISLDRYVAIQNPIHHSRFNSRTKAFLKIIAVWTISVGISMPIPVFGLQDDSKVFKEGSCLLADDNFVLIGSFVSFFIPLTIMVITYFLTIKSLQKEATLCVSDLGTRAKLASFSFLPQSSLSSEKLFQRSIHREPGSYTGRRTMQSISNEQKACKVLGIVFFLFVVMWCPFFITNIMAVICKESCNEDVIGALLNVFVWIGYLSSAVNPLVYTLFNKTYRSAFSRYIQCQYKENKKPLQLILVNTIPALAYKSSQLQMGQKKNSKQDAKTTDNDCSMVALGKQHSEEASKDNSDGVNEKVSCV

[16] = molecular target: Cathepsin G (Homo sapiens) (UniProt P08311); test: Inhibition of human neutrophil cathepsin G at 10 uM using Suc-Ala-Ala-Pro-Phe-AMC as substrate preincubated for 15 mins followed by substrate addition and measured after 30 mins by spectrofluorimetric analysis relative to control
[17] = molecular target: Histamine H2 receptor (Homo sapiens) (UniProt P25021); test: Inhibition of human histamine H2 receptor at 10 uM relative to control
[18] = molecular target: Histamine H4 receptor (Homo sapiens) (UniProt Q9H3N8); test: Inhibition of human histamine H4 receptor at 10 uM relative to control
Mus musculus = species on record: Mus musculus; test: Glucose lowering effect in GPR40 knockout mouse assessed as increase in GLP-1 level; type: functional, organism-based
[19] = molecular target: Free fatty acid receptor 1 (Homo sapiens, UniProt O14842); test: Positive allosteric modulation of recombinant human GPR40 expressed in HEK293 cells assessed as increase in [3H]-myo-inositol phosphate accumulation measured after 60 mins in presence of 100% human serum by microbeta counting method; type: functional, cell-based
[20] = molecular target: Kappa-type opioid receptor (Homo sapiens) (UniProt P41145); test: Inhibition of human kappa type opioid receptor at 10 uM relative to control
[21] = molecular target: Muscarinic acetylcholine receptor M3 (Homo sapiens) (UniProt P20309); test: Inhibition of human muscarinic M3 receptor at 10 uM relative to control
[22] = molecular target: Alpha-2C adrenergic receptor (Homo sapiens) (UniProt P18825); test: Inhibition of human adrenergic alpha2C receptor at 10 uM relative to control
[23] = molecular target: Prostaglandin E2 receptor EP3 subtype (Homo sapiens) (UniProt P43115); test: Inhibition of human prostanoid EP3 receptor at 10 uM relative to control
Sequence of Prostaglandin E2 receptor EP3 subtype (Homo sapiens) (P43115 whole entry): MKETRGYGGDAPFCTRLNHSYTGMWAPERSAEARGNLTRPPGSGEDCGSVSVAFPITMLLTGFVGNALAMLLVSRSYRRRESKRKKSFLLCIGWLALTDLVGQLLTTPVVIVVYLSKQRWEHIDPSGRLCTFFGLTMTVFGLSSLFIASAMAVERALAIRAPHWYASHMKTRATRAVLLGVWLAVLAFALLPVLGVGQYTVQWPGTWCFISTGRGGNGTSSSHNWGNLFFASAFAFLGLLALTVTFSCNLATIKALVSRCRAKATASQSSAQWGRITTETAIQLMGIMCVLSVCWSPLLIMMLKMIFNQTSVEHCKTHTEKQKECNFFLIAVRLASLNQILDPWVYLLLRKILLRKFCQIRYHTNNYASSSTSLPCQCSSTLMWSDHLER

[24] = molecular target: D(1A) dopamine receptor (Homo sapiens) (UniProt P21728); test: Inhibition of human dopamine D1 receptor at 10 uM relative to control
Sequence of D(1A) dopamine receptor (Homo sapiens) (P21728 whole entry): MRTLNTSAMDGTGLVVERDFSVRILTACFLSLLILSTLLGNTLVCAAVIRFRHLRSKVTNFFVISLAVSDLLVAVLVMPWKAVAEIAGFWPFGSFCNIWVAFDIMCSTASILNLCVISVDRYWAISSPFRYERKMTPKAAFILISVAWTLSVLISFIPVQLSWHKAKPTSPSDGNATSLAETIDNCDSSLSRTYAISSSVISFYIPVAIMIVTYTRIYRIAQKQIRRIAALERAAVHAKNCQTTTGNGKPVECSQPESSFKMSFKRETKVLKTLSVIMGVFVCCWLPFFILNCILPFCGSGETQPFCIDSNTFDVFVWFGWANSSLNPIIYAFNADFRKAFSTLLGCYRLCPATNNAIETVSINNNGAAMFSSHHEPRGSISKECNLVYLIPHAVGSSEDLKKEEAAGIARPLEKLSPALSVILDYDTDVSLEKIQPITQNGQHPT

Caspase-8 (Homo sapiens) = Caspase-8 (Homo sapiens) (UniProt Q14790); test: Inhibition of human full-length recombinant caspase 8 expressed in Escherichia coli at 10 uM using Ac-IETD-AMC as substrate preincubated for 15 mins followed by substrate addition and measured after 60 mins by spectrofluorimetric analysis relative to control
[25] = Solubility of the compound in FASSIF; type: physicochemical
[26] = molecular target: 5-hydroxytryptamine receptor 1A (Homo sapiens) (UniProt P08908); test: Inhibition of human 5HT1A receptor at 10 uM relative to control
Sequence of 5-hydroxytryptamine receptor 1A (Homo sapiens) (P08908 whole entry): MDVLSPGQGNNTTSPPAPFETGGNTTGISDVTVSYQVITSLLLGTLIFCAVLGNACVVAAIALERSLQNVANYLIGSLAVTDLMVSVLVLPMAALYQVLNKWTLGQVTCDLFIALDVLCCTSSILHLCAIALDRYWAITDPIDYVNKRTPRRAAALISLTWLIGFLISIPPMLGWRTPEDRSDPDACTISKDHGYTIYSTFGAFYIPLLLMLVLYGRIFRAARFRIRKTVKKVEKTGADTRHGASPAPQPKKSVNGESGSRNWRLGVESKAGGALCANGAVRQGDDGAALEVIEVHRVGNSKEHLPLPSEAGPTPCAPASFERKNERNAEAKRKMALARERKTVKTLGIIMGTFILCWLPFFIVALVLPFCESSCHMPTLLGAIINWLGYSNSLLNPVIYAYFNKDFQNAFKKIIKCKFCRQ

[27] = molecular target: Prostaglandin G/H synthase 1 (Homo sapiens) (UniProt P23219); test: Inhibition of human recombinant cyclooxygenase COX1 expressed in baculovirus infected Sf9 cells at 10 uM using arachidonic acid as substrate preincubated for 15 mins followed by substrate addition and measured after 3 mins by ampliflu red reagent-based spectrofluorimetric method relative to control
Sequence of Prostaglandin G/H synthase 1 (Homo sapiens) (P23219 whole entry): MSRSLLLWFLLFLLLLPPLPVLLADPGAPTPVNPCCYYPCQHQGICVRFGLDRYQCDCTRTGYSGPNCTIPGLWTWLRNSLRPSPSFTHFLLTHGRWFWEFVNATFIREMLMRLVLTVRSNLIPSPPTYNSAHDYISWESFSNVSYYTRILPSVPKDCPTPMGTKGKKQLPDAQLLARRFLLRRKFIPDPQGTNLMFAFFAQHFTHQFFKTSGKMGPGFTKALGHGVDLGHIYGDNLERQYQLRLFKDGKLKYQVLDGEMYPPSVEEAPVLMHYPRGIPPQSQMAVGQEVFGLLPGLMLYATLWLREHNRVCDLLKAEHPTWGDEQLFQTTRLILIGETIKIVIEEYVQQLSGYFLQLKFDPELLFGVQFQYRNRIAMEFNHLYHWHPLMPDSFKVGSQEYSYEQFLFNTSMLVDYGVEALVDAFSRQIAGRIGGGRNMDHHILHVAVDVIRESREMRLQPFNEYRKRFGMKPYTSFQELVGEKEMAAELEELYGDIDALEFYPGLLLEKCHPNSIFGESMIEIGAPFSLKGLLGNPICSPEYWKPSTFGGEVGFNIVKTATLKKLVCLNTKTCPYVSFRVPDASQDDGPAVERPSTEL

[28] = molecular target: Prostaglandin E2 receptor EP1 subtype (Homo sapiens) (UniProt P34995); test: Inhibition of human prostanoid EP1 receptor at 10 uM relative to control
Sequence of Prostaglandin E2 receptor EP1 subtype (Homo sapiens) (P34995 whole entry): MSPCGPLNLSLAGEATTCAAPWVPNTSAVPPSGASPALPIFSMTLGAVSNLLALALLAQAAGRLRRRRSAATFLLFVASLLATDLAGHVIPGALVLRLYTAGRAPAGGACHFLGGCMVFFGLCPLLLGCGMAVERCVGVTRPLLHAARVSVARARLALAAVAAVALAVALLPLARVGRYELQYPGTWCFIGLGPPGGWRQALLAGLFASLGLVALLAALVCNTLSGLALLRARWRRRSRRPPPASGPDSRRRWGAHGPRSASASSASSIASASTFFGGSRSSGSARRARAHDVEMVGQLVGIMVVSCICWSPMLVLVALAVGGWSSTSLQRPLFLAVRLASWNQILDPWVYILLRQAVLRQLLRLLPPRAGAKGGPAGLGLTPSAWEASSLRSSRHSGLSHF

[29] = molecular target: 5-hydroxytryptamine receptor 2B (Homo sapiens) (UniProt P41595); test: Inhibition of human 5-HT2B receptor at 10 uM relative to control
Sequence of 5-hydroxytryptamine receptor 2B (Homo sapiens) (P41595 whole entry): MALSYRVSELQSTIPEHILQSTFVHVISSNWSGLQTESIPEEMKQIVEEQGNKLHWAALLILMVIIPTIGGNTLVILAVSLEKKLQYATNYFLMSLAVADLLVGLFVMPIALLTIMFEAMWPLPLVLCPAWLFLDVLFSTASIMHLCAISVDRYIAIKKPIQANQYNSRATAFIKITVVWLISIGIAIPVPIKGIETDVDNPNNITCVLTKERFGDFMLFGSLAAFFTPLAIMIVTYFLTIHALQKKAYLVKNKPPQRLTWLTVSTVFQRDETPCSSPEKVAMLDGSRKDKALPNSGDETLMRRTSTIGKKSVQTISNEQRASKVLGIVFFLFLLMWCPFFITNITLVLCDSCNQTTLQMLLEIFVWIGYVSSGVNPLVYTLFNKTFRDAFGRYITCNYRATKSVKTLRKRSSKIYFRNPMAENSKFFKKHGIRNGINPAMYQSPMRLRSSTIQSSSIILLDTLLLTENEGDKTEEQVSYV

[30] = molecular target: Mitogen-activated protein kinase 3 (Homo sapiens) (UniProt P27361); test: Inhibition of human recombinant full-length ERK1 expressed in Escherichia coli at 10 uM using myelin basic protein as substrate preincubated for 30 mins followed by substrate addition and measured after 30 mins in the presence of [gamma32P]ATP by scintillation counting method relative to control
Sequence of Mitogen-activated protein kinase 3 (Homo sapiens) (P27361 whole entry): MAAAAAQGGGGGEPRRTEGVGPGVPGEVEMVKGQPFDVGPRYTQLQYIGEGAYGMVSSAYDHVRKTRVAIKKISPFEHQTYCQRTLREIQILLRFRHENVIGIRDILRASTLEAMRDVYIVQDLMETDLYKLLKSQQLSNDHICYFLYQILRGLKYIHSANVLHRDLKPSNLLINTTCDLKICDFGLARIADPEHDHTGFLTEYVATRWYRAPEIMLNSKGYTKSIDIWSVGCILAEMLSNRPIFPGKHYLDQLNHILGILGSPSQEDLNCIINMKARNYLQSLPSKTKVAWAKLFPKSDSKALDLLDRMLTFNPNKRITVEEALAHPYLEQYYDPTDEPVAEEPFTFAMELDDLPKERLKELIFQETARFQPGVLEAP

[31] = molecular target: MAP/microtubule affinity-regulating kinase 3 (Homo sapiens) (UniProt P27448); test: Inhibition of human full-length recombinant MARK3 expressed in insect cells at 10 uM using CHKtide as substrate preincubated for 15 mins followed by substrate addition and measured after 30 mins in presence of [gamma32P]ATP by scintillation counting analysis relative to control
[32] = molecular target: Cysteinyl leukotriene receptor 2 (Homo sapiens) (UniProt Q9NS75); test: Displacement of [3H]LTD4 from human full-length recombinant cysteinyl leukotriene type-2 receptor expressed in HEK293 cells at 10 uM measured after 60 mins by scintillation counting method relative to control; type: cell-based

COc1ccc(F)c(-c2ccc(COc3cccc([C@@H](CC(=O)O)C4CC4)c3)cc2C2=CCCC2(C)C)c1
inhibition [1]: 63% | inhibition [2]: 60% | inhibition (Caspase-9 (Homo sapiens)): 89% | inhibition (Rattus norvegicus [3]): 80% | inhibition [4]: 77% | inhibition [5]: 97% | inhibition [6]: 70% | inhibition [7]: 94% | Activity (Rattus norvegicus [8]): Active | inhibition [9]: 99% | inhibition [10]: 52% | inhibition [11]: 66% | inhibition [12]: 99% | inhibition [13]: 97% | inhibition [14]: 95% | inhibition [15]: 89% | inhibition [16]: 53% | inhibition [17]: 66% | inhibition [18]: 82% | Activity (Mus musculus): Active | fEC50 [19]: 0.06 nM | inhibition [20]: 97% | inhibition [21]: 60% | inhibition [22]: 99% | inhibition [23]: 77% | inhibition [24]: 78% | inhibition (Caspase-8 (Homo sapiens)): 65% | solubility [25]: 166 µM (≈ 85.4 µg/mL) | inhibition [26]: 91% | inhibition [27]: 67% | inhibition [28]: 95% | inhibition [29]: 88% | inhibition [30]: 96% | inhibition [31]: 81% | inhibition [32]: 61%
